From patent US9457033B2, “Steroid alkaloids and uses thereof as antimicrobial agents against electron transport-deficient microbes and as potentiators for antimicrobial agents against pathogenic bacteria” (priority 2011, dated 2016) come the findings set out here.

In general, MIC refers to the lowest concentration that inhibits growth of the organism.

Values after ≈ are worked out from the molar mass of the structure shown.

Assay [1] deals with S. aureus ATCC 29213. Kind of assay: MICs of control antibiotics for macromolecular biosynthesis assays. In kind it is cell-based. The following applies: Staphylococcus aureus, ATCC29213; ATCC 29213; data not shown; read-out: MIC.
A further assay has as its system S. aureus CF2A-L. Kind of assay: MIC, microdilution in CAMHB 24 h. Particulars: Staphylococcus aureus, CF2AL; CF2A-L; Human (CF lungs); read-out: MIC. In kind it is cell-based.
A further assay relates to S. aureus Sa220c. As to the kind of experiment: MIC, microdilution in CAMHB 24 h. In kind it is cell-based, Staphylococcus aureus. The following applies: Staphylococcus aureus; Sa220c; Human (SSTI); MRSA; read-out: MIC. In general terms: Dilution methods test growth across graded concentrations, often in twofold steps.
In a further assay the test system is S. aureus Newman. Kind of assay: MIC, microdilution in CAMHB 24 h. In kind it is cell-based, Staphylococcus aureus. The following applies: Staphylococcus aureus; Newman; Human (Osteo); read-out: MIC.
For the next assay, the system named is S. aureus CF35A-L. Kind of assay: MIC, microdilution in CAMHB 24 h. In kind it is cell-based, Staphylococcus aureus. The following applies: Staphylococcus aureus; CF35A-L; Human (CF lungs); MRSA; read-out: MIC.
The subject of a further assay is S. aureus 8325-4. Kind of assay: MIC, microdilution in CAMHB 24 h. In kind it is cell-based, Staphylococcus aureus. Particulars: Staphylococcus aureus, 83254; 8325-4; Laboratory strain; read-out: MIC.
For a further assay, the system named is S. aureus CF8E-L. As to the kind of experiment: MIC, microdilution in CAMHB 24 h. In kind it is cell-based, Staphylococcus aureus. Particulars: Staphylococcus aureus, CF8EL; CF8E-L; Human (CF lungs); read-out: MIC.
The subject of the next assay is S. aureus Mu50. Kind of assay: MIC, microdilution in CAMHB 24 h. In kind it is cell-based, Staphylococcus aureus. Particulars: Staphylococcus aureus; Mu50; Human (SSTI); MRSA, VISA; read-out: MIC.
For another assay, the system named is S. aureus CF6B-L. Kind of assay: MIC, microdilution in CAMHB 24 h. In kind it is cell-based, Staphylococcus aureus. The following applies: Staphylococcus aureus, CF6BL; CF6B-L; Human (CF lungs); read-out: MIC.
Another assay concerns S. aureus CF4B-L. Kind of assay: MIC, microdilution in CAMHB 24 h. The following applies: Staphylococcus aureus, CF4BL; CF4B-L; Human (CF lungs); read-out: MIC. In kind it is cell-based, Staphylococcus aureus.
Another assay has as its system S. aureus CF1A-L. As to the kind of experiment: MIC, microdilution in CAMHB 24 h. In kind it is cell-based, Staphylococcus aureus. The following applies: Staphylococcus aureus, CF1AL; CF1A-L; Human (CF lungs); read-out: MIC.
The test system of another assay is S. aureus Newbould. As to the kind of experiment: MIC, microdilution in CAMHB 24 h. In kind it is cell-based, Staphylococcus aureus. The following applies: Staphylococcus aureus; Newbould; Cow (mastitis); read-out: MIC.
A further assay relates to S. aureus CF9A-L. As to the kind of experiment: MIC, microdilution in CAMHB 24 h. Particulars: Staphylococcus aureus; CF9A-L; Human (CF lungs); MRSA; read-out: MIC. In kind it is cell-based, Staphylococcus aureus.
The next assay concerns S. aureus CF07-L. Kind of assay: MIC, microdilution in CAMHB 24 h. In kind it is cell-based, Staphylococcus aureus. The following applies: Staphylococcus aureus, CF07L; CF07-L; Human (CF lungs); read-out: MIC.
The test system of the next assay is S. aureus SHY97-3906. Kind of assay: MIC, microdilution in CAMHB 24 h. In kind it is cell-based, Staphylococcus aureus. Particulars: Staphylococcus aureus, SHY973906; SHY97-3906; Cow (mastitis); read-out: MIC.
Another assay deals with S. aureus CF7A-L. Kind of assay: MIC, microdilution in CAMHB 24 h. In kind it is cell-based, Staphylococcus aureus. The following applies: Staphylococcus aureus; CF7A-L; Human (CF lungs); MRSA; read-out: MIC.
For another assay, the system named is S. aureus Sa228c. Kind of assay: MIC, microdilution in CAMHB 24 h. In kind it is cell-based, Staphylococcus aureus. The following applies: Staphylococcus aureus, MRSA.
Assay [2] relates to protein, DNA, RNA and cell wall peptidoglycan biosynthesis in ATCC 29213. As to the kind of experiment: Macromolecular biosynthesis assay, incorporation of radiolabeled precursors. In kind it is cell-based, Staphylococcus aureus. Particulars: control antibiotics at approximately 4×MIC; FIG. 3A.
A further assay concerns S. aureus MRSA COL. As to the kind of experiment: MIC, microdilution in CAMHB 24 h. Particulars: Staphylococcus aureus; MRSA COL; Human (SSTI); read-out: MIC. In kind it is cell-based, Staphylococcus aureus.
Assay [3] deals with S. aureus ATCC 29213. As to the kind of experiment: MIC, microdilution in CAMHB 24 h, with or without tomatidine/compound. In kind it is cell-based, Staphylococcus aureus. The following applies: ATCC 29213; for MIC: Staphylococcus aureus, ATCC29213.

As for `CO[C@H]1/C=C/O[C@@]2(C)Oc3c(C)c(O)c4c(O)c(c(/C=N/N5CCN(C)CC5)c(O)c4c3C2=O)NC(=O)/C(C)=C\C=C\[C@H](C)[C@H](O)[C@@H](C)[C@@H](O)[C@@H](C)[C@H](OC(C)=O)[C@@H]1C` [rifampicin], the MIC in the assay on S. aureus ATCC 29213 [1] was 0.008 to 0.015 µg/mL (≈ 0.00972 to 0.0182 µM).

On to `CCn1cc(C(=O)O)c(=O)c2cc(F)c(N3CCNCC3)cc21` [Norfloxacin, norfloxacin], for which the MIC with S. aureus CF2A-L was 0.5 to 1 µg/mL (≈ 1.57 to 3.13 µM); in the assay with S. aureus Sa220c, over 64 µg/mL; in the assay on S. aureus Newman, 1 µg/mL (≈ 3.13 µM); in the assay with S. aureus CF35A-L it was over 64 µg/mL; with S. aureus 8325-4 it was 1 to 2 µg/mL (≈ 3.13 to 6.26 µM); in the assay on S. aureus CF8E-L, 4 µg/mL (≈ 12.5 µM). In addition, the minimum inhibitory concentration (MIC) was over 64 µg/mL with S. aureus Mu50; over 64 µg/mL in the assay on S. aureus CF6B-L; 1 µg/mL (≈ 3.13 µM) with S. aureus CF4B-L; 1 µg/mL (≈ 3.13 µM) in the assay on S. aureus ATCC 29213 [1]; 1 µg/mL (≈ 3.13 µM) in the assay on S. aureus CF1A-L; 0.5 µg/mL (≈ 1.57 µM) in the assay on S. aureus Newbould. For the same molecule, the MIC was over 64 µg/mL in the assay on S. aureus CF9A-L; 1 to 2 µg/mL (≈ 3.13 to 6.26 µM) in the assay on S. aureus CF07-L; 0.5 to 1 µg/mL (≈ 1.57 to 3.13 µM) with S. aureus SHY97-3906; over 64 µg/mL in the assay on S. aureus CF7A-L; over 64 µg/mL against S. aureus Sa228c; 2 to 4 µg/mL (≈ 6.26 to 12.5 µM) with S. aureus MRSA COL. Moreover, the minimal inhibitory concentration (MIC) was in the range of 1 to 2 µg/mL (≈ 3.13 to 6.26 µM) with S. aureus ATCC 29213 [3] (Human (SSTI), read-out: MIC); 1 to 2 µg/mL (≈ 3.13 to 6.26 µM) with S. aureus ATCC 29213 [3] (absence of tomatidine, read-out: MIC −TO); 1 to 2 µg/mL in the assay on S. aureus ATCC 29213 [3] (presence of tomatidine at 8 μg/ml, read-out: MIC +TO). In [2], the “incorporation of radiolabeled precursors into the targeted macromolecules” value is “preferentially inhibited”. Moreover, in the assay with S. aureus ATCC 29213 [3] (tomatidine at 8 μg/ml), the “Fold (−TO/+TO)” value was determined as 1 fold.
